Results from US12115178B2, “Acylated active agents and methods of their use for the treatment of autoimmune disorders” (Flagship Pioneering Innovations V, Inc., priority 2018, dated 2024).

How the values were obtained:
Format in all cases: in vitro ADME
[1] = Assay 2. Stability in Simulated Intestinal Fluid (SIF); conditions: SIF pH 6.7 with pancreatin, 1 μM, 37° C.
Method: Assay 2. Stability of acylated active agents in Simulated Intestinal Fluid (SIF). This assay was used to assess the stability of an acylated active agent in a small intestine. Phosphate buffer was prepared by dissolving 0.42 g of sodium hydroxide pellets and 3.95 g of monobasic sodium phosphate monohydrate and 6.19 g of sodium chloride in ultrapure water (MilliQ®, Millipore Sigma, Darmstadt, Germany). The pH was adjusted to 6.7 using aq. HCl and aq. NaOH, as necessary, and the solution was diluted with ultrapure water to produce 1 L of the pH 6.7 buffer. 112 mg FaSSIF powder (Biorelevant™, London, UK) was dissolved in 50 mL of the pH 6.7 buffer. 2 to 3 mL of the resulting solution were then added to 500 mg pancreatin (Millipore Sigma, Darmstadt, Germany). The resulting mixture was agitated by finger tapping the vessel containing the mixture until milky suspension formed. At this time, the remainder of the 50 mL FaSSiF/pH 6.7 buffer solution was added. The resulting suspension was flipped upside down 10 times to produce SIF, which was used fresh. Test compounds were dissolved in DMSO stock to 1 mM. An aliquot of the DMSO stock solution was removed and diluted in the SIF media in 15 mL falcon tubes to produce a mixture with a tested compound concentration of 1 μM. A 1 mL aliquot was immediately removed and diluted once with 1 volume of acetonitrile for T0 timepoint. The mixture was sealed and agitated at 37° C. in an incubator. Aliquots (1 mL) were removed at regular intervals and immediately quenched by the addition of 1 volume of acetonitrile. The resulting samples were analyzed by LC/MS to determine degradation rates.

[2] = Assay 3. In vitro Colonic Material Stability Assay
Method: Assay 3. In vitro Colonic Material Stability Assay. This assay was used to assess the stability of an acylated active agent in a large intestine. All experiments were performed in an anaerobic chamber containing 90% nitrogen, 5% hydrogen and 5% carbon dioxide. Colonic material was resuspended as a slurry (15% w/v final concentration) in pre-reduced, anaerobically sterilized dilution blanks (Anaerobe Systems AS-908). The colonic material was then inoculated into 96 well plates containing YCFAC media (Anaerobe Systems AS-680) or other suitable media (6.7 μL slurry into 1 mL total media). Compounds or groups of compounds were added to each individual well to reach a final analyte concentration of 1 or 10 μM, and the material was mixed by pipetting. Sample was removed after set timepoints (0, 120, 240, 480, 1440, 2880 minutes after initiation of the assay), quenched with acetonitrile containing internal standard, and analyzed by LC/MS.

[3] = Assay 1. Stability in Simulated Gastric Fluid (SGF); conditions: SGF pH 1.6 with pepsin, 1 μM, 37° C.
Method: Assay 1. Stability of acylated active agents in Simulated Gastric Fluid (SGF). This assay was used to assess the stability of an acylated active agent in a stomach.
Medium was prepared by dissolving 2 g of sodium chloride in 0.6 L in ultrapure water (MilliQ®, Millipore Sigma, Darmstadt, Germany). The pH was adjusted to 1.6 with 1N hydrochloric acid, and the volume was then adjusted to 1 L with purified water.
60 mg FaSSIF powder (Biorelevant™, London, UK) were dissolved in 500 mL buffer (above). Pepsin was added (0.1 mg/mL) (Millipore Sigma, Darmstadt, Germany), and the solution was stirred. The resulting SGF media were used fresh for each experiment.
Test compounds were dissolved in DMSO stock to 1 mM. An aliquot of the DMSO stock solution was removed and diluted in the SGF Media in 15 mL falcon tubes to generate a total compound concentration of 1 μM. A 1 mL aliquot was immediately removed and diluted once with 1 volume of acetonitrile for T0 timepoint. The mixture was sealed and mixed at 37° C. in an incubator. Aliquots (1 mL) were removed at regular intervals and immediately quenched by the addition of 1 volume of acetonitrile. The resulting samples were analyzed by LC/MS to determine degradation rates in SGF.

[4] = colonic material slurry, anaerobic, 1 or 10 μM

SMILES	Assay 2 (SIF) (% @ Remaining 4 hours) [1]	Assay 3 (% Remaining at 24 h) [2, 4]	also measured
CCCC(=O)Oc1cc(OC(=O)CCC)c2c(c1)O[C@H](c1cc(OC(=O)CCC)c(OC(=O)CCC)c(OC(=O)CCC)c1)[C@H](OC(=O)c1cc(OC(=O)CCC)c(OC(=O)CCC)c(OC(=O)CCC)c1)C2 [Compound 1, [(2R,3R)-5,7-di(butanoyloxy)-2-[3,4,5-tri(butanoyloxy)phenyl]chroman-3-yl] 3,4,5-tri(butanoyloxy)benzoate]	C (>75% of the tested compound remaining)	B (25-75% of the tested compound remaining)	–
CCC(=O)Oc1cc(OC(=O)CC)c2c(=O)c(OC(=O)CC)c(-c3ccc(OC(=O)CC)c(OC(=O)CC)c3)oc2c1 [Compound 14, [4-[4-oxo-3,5,7-tri(propanoyloxy)chromen-2-yl]-2-propanoyloxy-phenyl] propanoate]	A (<25% of the tested compound remaining)	C (>75% of the tested compound remaining)	–
CCCC(=O)Oc1ccc(N)cc1C(=O)O [Compound 16, 5-amino-2-butanoyloxy-benzoic acid]	C (>75% of the tested compound remaining)	C (>75% of the tested compound remaining)	–
CCCC(=O)O[C@H]1[C@H](OC(=O)CCC)[C@H](Oc2ccccc2C(=O)O)O[C@@H](C)[C@H]1OC(=O)CCC [Compound 23, 2-(((2S,3S,4R,5R,6S)-3,4,5-tris(butyryloxy)-6-methyltetrahydro-2H-pyran-2-yl)oxy)benzoic acid]	B (25-75% of the tested compound remaining)	C (>75% of the tested compound remaining)	–
CCCC(=O)O[C@@H]1[C@@H](OC(=O)CCC)[C@H](Oc2ccc(N)cc2C(=O)O)OC[C@H]1O [Compound 32, 5-amino-2-(((2S,3R,4S,5R)-3,4-bis(butyryloxy)-5-hydroxytetrahydro-2H-pyran-2-yl)oxy)benzoic acid]	B (25-75% of the tested compound remaining)	C (>75% of the tested compound remaining)	–
C[C@@H]1OC(OC(=O)CCc2c[nH]c3ccccc23)[C@H](OC(=O)CCc2c[nH]c3ccccc23)[C@H](OC(=O)CCc2c[nH]c3ccccc23)[C@H]1OC(=O)CCc1c[nH]c2ccccc12 (stereo partly drawn) [Compound 147, (3R,4R,5S,6S)-3,4,5-tris({[3-(1H-indol-3-yl)propanoyl]oxy})-6-methyloxan-2-yl 3-(1H-indol-3-yl)propanoate]	–	A (<25% of the tested compound remaining)	–
CCCC(=O)Oc1cc(OC(=O)CCC)c2c(=O)c(OC(=O)CCC)c(-c3ccc(OC(=O)CCC)c(OC(=O)CCC)c3)oc2c1 [Compound 181, [2-butanoyloxy-4-[3,5,7-tri(butanoyloxy)-4-oxo-chromen-2-yl]phenyl] butanoate]	A (<25% of the tested compound remaining)	–	Assay 1 (SGF) (% Remaining @ 1 hour) [3]: C (>75% of the tested compound remaining)
[2H]C([2H])([2H])C([2H])([2H])CC(=O)O[C@@H]1[C@@H](OC(=O)CC([2H])([2H])C([2H])([2H])[2H])[C@H](Oc2ccc(N)cc2C(=O)O)OC[C@H]1OC(=O)CC([2H])([2H])C([2H])([2H])[2H] [Compound 189, 5-amino-2-{[(2S,3R,4S,5R)-3,4,5-tris[(3,3,4,4,4-^2H5)butanoyloxy]oxan-2-yl]oxy}benzoic acid]	–	B (25-75% of the tested compound remaining)	–
[2H]C([2H])([2H])C([2H])([2H])CC(=O)O[C@@H]1[C@@H](OC(=O)CC([2H])([2H])C([2H])([2H])[2H])[C@H](Oc2ccc(N)cc2C(=O)O)OC[C@H]1O [Compound 192, 5-amino-2-{[(2S,3R,4S,5R)-3,4-bis[(3,3,4,4,4-^2H5)butanoyloxy]-5-hydroxyoxan-2-yl]oxy}benzoic acid]	–	B (25-75% of the tested compound remaining)	–
CC(=O)Oc1cc(OC(C)=O)c2c(c1)O[C@H](c1cc(OC(C)=O)c(OC(C)=O)c(OC(C)=O)c1)[C@H](OC(=O)c1cc(OC(C)=O)c(OC(C)=O)c(OC(C)=O)c1)C2 [Compound 197, [(2R,3R)-5,7-diacetoxy-2-(3,4,5-triacetoxyphenyl)chroman-3-yl] 3,4,5-triacetoxybenzoate]	–	A (<25% of the tested compound remaining)	–
CCCC(=O)Oc1cc(OC(=O)CCC)c2c(c1)O[C@H](c1cc(OC(=O)CCC)c(OC(=O)CCC)c(OC(=O)CCC)c1)[C@H](OC(=O)c1cc(OC(=O)CCC)c(OC(=O)CCC)c(OC(=O)CCC)c1)C2 [Compound 198, [(2R,3R)-5,7-di(butanoyloxy)-2-[3,4,5-tri(butanoyloxy)phenyl]chroman-3-yl] 3,4,5-tri(butanoyloxy)benzoate]	–	–	Assay 3 (% Remaining at 24 h) ([2]; Run 1, colonic material): C (>75% of the tested compound remaining); Assay 3 (% Remaining at 24 h) ([2]; Run 2, colonic material): C (>75% of the tested compound remaining); Assay 3 (% Remaining at 24 h) ([2]; Run 3, colonic material): B (25-75% of the tested compound remaining)
CC(=O)Oc1cc(C(=O)O)cc(OC(C)=O)c1OC(C)=O [Compound 199, 3,4,5-triacetoxybenzoic acid]	B (25-75% of the tested compound remaining)	–	Assay 1 (SGF) (% Remaining @ 1 hour) [3]: C (>75% of the tested compound remaining)
O=C(CCc1c[nH]c2ccccc12)Oc1cc(C(=O)O)cc(OC(=O)CCc2c[nH]c3ccccc23)c1OC(=O)CCc1c[nH]c2ccccc12 [Compound 202, 3,4,5-tris({[3-(1H-indol-3-yl)propanoyl]oxy})benzoic acid]	C (>75% of the tested compound remaining)	–	Assay 1 (SGF) (% Remaining @ 1 hour) [3]: A (<25% of the tested compound remaining)
CCC(=O)Oc1ccc2c(c1)oc(=O)c1cc(OC(=O)CC)c(OC(=O)CC)cc12 [Compound 204, [6-oxo-8,9-di(propanoyloxy)benzo[c]chromen-3-yl] propanoate]	A (<25% of the tested compound remaining)	–	Assay 1 (SGF) (% Remaining @ 1 hour) [3]: C (>75% of the tested compound remaining)
CCCC(=O)Oc1ccc2c(c1)oc(=O)c1cc(OC(=O)CCC)c(OC(=O)CCC)cc12 [Compound 210, 8,9-bis(butanoyloxy)-6-oxo-6H-benzo[c]chromen-3-yl butanoate]	–	A (<25% of the tested compound remaining)	–
CC(=O)O[C@@H]1[C@H](OC(C)=O)C=C(C(=O)O)C[C@H]1OC(C)=O [Compound 215, (3R,4S,5R)-3,4,5-triacetoxycyclohex-1-ene-1-carboxylic acid]	–	B (25-75% of the tested compound remaining)	–
O=C(CCc1c[nH]c2ccccc12)O[C@@H]1[C@H](OC(=O)CCc2c[nH]c3ccccc23)C=C(C(=O)O)C[C@H]1OC(=O)CCc1c[nH]c2ccccc12 [Compound 216, (3R,4S,5R)-3,4,5-tris({[3-(1H-indol-3-yl)propanoyl]oxy})cyclohex-1-ene-1-carboxylic acid]	B (25-75% of the tested compound remaining)	–	Assay 1 (SGF) (% Remaining @ 1 hour) [3]: B (25-75% of the tested compound remaining)
CCC(=O)O[C@@H]1[C@H](OC(=O)CC)C=C(C(=O)O)C[C@H]1OC(=O)CC [Compound 217, (3R,4S,5R)-3,4,5-tris(propanoyloxy)cyclohex-1-ene-1-carboxylic acid]	–	B (25-75% of the tested compound remaining)	–
CCCC(=O)O[C@@H]1[C@H](OC(=O)CCC)C=C(C(=O)O)C[C@H]1OC(=O)CCC [Compound 218, (3R,4S,5R)-3,4,5-tris(butanoyloxy)cyclohex-1-ene-1-carboxylic acid]	–	B (25-75% of the tested compound remaining)	–
